# Assays:
# Assay type in all cases: cell-based
# BAG2 with mutant p53 = biological target: T1, BAG2 with mutant p53 (Homo sapiens, UniProt O95816); assay: Co-immunoprecipitation in T47D cells; conditions: 1 µM, 48 h
# T1 construct: endogenous in cells; host or cells: T47D
# Procedure: (§1) Cells were harvested, washed with PBS, and lysed using NP-40 lysis buffer. Protein A agarose beads (Thermo Fisher Scientific) were mixed with protein G agarose beads (Thermo Fisher Scientific) (4:1) and preincubated overnight at 4°C with anti-p53 or anti-BAG1 or control IgG antibody. Cellular extracts from X15695 treated and untreated cells (1,000 µg) were incubated with antibody-preincubated protein A/G agarose beads for 3 to 4 h at room temperature. The beads with immunoprecipitated proteins were collected at 4°C by centrifugation at 1,000 g for 5 min and washed 4 to 5 times with NP-40 lysis buffer. The immunoprecipitated proteins were eluted by heating in SDS sample buffer for 5 min at 95°C and resolved on SDS-PAGE. Thereafter, they were subjected to Western blot analysis to detect mortalin, BAG1, BAG2, BAG5 and p53. Cellular extracts containing 50 to 70 µg protein from X15695 treated and untreated cells were used as the input control for the targeted proteins.
# BAG5 with mutant p53 = biological target: T2, BAG5 with mutant p53 (Homo sapiens, UniProt Q9UL15); assay: Co-immunoprecipitation in T47D cells; conditions: 1 µM, 48 h
# T2 construct: endogenous in cells; host or cells: T47D
# T2 sequence (Q9UL15 whole entry, stated change not applied): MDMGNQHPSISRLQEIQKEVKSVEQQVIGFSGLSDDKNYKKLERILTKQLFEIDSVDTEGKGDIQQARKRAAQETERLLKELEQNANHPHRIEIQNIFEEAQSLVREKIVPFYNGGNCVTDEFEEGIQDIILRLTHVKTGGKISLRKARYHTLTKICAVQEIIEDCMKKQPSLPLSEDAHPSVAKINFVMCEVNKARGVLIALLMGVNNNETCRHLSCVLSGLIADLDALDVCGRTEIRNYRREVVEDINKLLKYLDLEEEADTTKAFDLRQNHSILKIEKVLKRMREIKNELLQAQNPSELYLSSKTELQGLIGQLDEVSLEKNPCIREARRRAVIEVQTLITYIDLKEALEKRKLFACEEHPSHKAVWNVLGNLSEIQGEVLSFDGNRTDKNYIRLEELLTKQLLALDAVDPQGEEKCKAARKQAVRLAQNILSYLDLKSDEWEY
# Procedure: as §1
# MCF-7 and T47D cells = assay: Apoptosis assessment, 7-AAD and Annexin V double staining; conditions: 1 µM, 48 h
# Procedure: Induction of apoptosis in response to treatment with X15695 was analyzed in MCF-7 and T47D cells using PE Annexin V Apoptosis Detection Kit with 7-AAD (BD Bioscience, San Diego, CA, USA) according to the manufacturer's protocol. In short, cells were harvested by trypsinization, and single cell suspensions (1×10^6 cells) were prepared as described above in 100 µl PBS. Cells were stained with 5 µl PE Annexin V and 5 µl 7-AAD for 15 min at room temperature in the dark. Subsequently, 400 µl PBS were added to each sample and flow cytometry measurements were performed within one hour. Cells stained with PE Annexin V or 7-AAD alone were used for compensation. Flow cytometry analysis was performed using BD FACSAria (BD Biosciences, Franklin Lakes, NJ, USA). Flow cytometry data were analyzed using FlowJo 10.8.1 cytometry analysis software (FlowJo, LLC).
# [1] = system: TRMCF-7 cells (tamoxifen resistant MCF-7 cells); assay: MTT cell viability assay; conditions: 48 h
# Procedure: […] Cells transfected with siRNA were incubated for 72 h after X15695 addition. Thereafter, the medium was exchanged for a fresh medium containing 0.5 mg/ml MTT (Sigma-Aldrich) and incubated at 37°C for 1 h to 4 h (depending on cell line) until intracellular purple formazan crystals were formed. The MTT solution was removed, and the purple crystals were dissolved in isopropanol and the optical absorbance at 595 nm was recorded using SpectraMax iD3, Molecular Devices, San Jose, CA, USA.
# AR = assay: Western blot of AR level in prostate cancer cells; conditions: LNCaP and 22Rv.1 cells, 24 h
# Procedure: For Western blotting, cells were lysed in NP-40 lysis buffer (1% NP-40, 50 mM Tris-HCl, pH 8.0, 150 mM NaCl, 5 mM EDTA) or 1× passive lysis buffer (Promega, Germany) for 15 min on ice. Cell debris was removed by centrifugation at 13,000 rpm for 10 min and used for SDS-polyacrylamide gel electrophoresis (PAGE) and Western blotting.
# Western Blotting was carried out using standard protocols with antibodies: p53 (clone DO1), p53 (Sp5, Thermo Fisher Scientific Karlsruhe, Germany), Mdm2 (4B2, Abcam, Cambridge, UK). […] Secondary goat anti-mouse and goat anti-rabbit antibodies were purchased from DAKO (Bollschweil, Germany).
# T1 sequence (O95816 whole entry, stated change not applied): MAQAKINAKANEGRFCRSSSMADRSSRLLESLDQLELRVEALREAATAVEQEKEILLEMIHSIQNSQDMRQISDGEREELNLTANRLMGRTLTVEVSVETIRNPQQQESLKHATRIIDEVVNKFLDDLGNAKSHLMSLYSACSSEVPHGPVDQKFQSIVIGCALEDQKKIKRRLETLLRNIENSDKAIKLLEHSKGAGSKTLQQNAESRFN
compound,measurement,setting,value
"Fc1ccc(-c2cn3cc(C(F)(F)F)cc(Cl)c3n2)cc1 [Compound X15695, 8-Chloro-2-(4-fluorophenyl)-6-(trifluoromethyl)imidazo[1,2-a]pyridine]",interaction of BAG2 with mutant p53,BAG2 with mutant p53,disrupts the interaction of BAG2
same,interaction of BAG5 with mutant p53,BAG5 with mutant p53,not BAG5
same,apoptosis,MCF-7 and T47D cells,increased number of the cells in the late stage of apoptosis
same,inhibition of viability,[1],comparable activities
same,AR level,AR,did not strongly downregulate AR level

# From EP4417202A1, “ANTI-CANCER ACTION OF BAG1-SELECTIVE IMIDAZOPYRIDINE COMPOUNDS IN STEROID HORMONE RECEPTOR-POSITIVE BREAST AND PROSTATE CANCER” (Karlsruher Institut für Technologie, priority 2023, dated 2024)
